Earlier results in patent US8617611B2, “Polymeric compositions comprising therapeutic agents in crystalline phases, and methods of forming the same” (Cordis Corporation, priority 2005, dated 2013).

solubility in dimethyl sulfoxide (DMSO) (DMSO): soluble | solubility in other solvents such as methylene chloride (methylene chloride): not soluble
SMILES: COc1ccc(/C=C/C(=O)Nc2ccccc2C(=O)O)cc1OC [Tranilast]
